From ChEMBL document CHEMBL2150883, “Development of indole compounds as small molecule fusion inhibitors targeting HIV-1 glycoprotein-41” (J Med Chem, 2011)
pEC50, pKi: −log10 of the molar value.

What was measured:
[1] = Cytotoxicity against human MAGI-CCR5 cells assessed as cell viability by MTS assay; type: cell-based
[2] = tested on: Human immunodeficiency virus 1; assay: Antiviral activity against HIV1 Ba-L assessed as inhibition of viral replication by CCR5/CXCR4-tropic MAGI assay in presence of 5% serum; type: functional, organism-based; conditions: Human immunodeficiency virus 1, Ba-L
[3] = tested on: Human immunodeficiency virus 1; assay: Antiviral activity against HIV1 Ba-L assessed as inhibition of viral replication by CCR5/CXCR4-tropic MAGI assay in presence of 10% serum; type: functional, organism-based; conditions: Human immunodeficiency virus 1, Ba-L
[4] = Cytotoxicity against human MAGI-CCR5 cells assessed as cell viability by MTS assay in presence of 2% serum; type: cell-based
[5] = tested on: Human immunodeficiency virus 1; assay: Antiviral activity against HIV1 3B assessed as inhibition of viral replication by CCR5/CXCR4-tropic MAGI assay in presence of 10% serum; type: functional, organism-based; conditions: Human immunodeficiency virus 1, 3B
[6] = Cytotoxicity against human MAGI-CCR5 cells assessed as cell viability by MTS assay in presence of 5% serum; type: cell-based
[7] = tested on: Human immunodeficiency virus 1; assay: Antiviral activity against HIV1 Ba-L assessed as inhibition of viral replication by CCR5/CXCR4-tropic MAGI assay in presence of 2% serum; type: functional, organism-based; conditions: Human immunodeficiency virus 1, Ba-L
[8] = Cytotoxicity against human MAGI-CCR5 cells assessed as cell viability by MTS assay in presence of 10% serum; type: cell-based
[9] = Binding affinity to HIV1 HXB2 gp41 by fluorescence assay; parameters: species or system Human immunodeficiency virus 1
[10] = Inhibition of gp41 in HIV1 HXB2 assessed as cell-cell fusion inhibition after 6 hrs by luciferase reporter gene assay; conditions: Human immunodeficiency virus 1, HXB2, 6 h

pEC50 [2] | pEC50 [3] | pEC50 [5] | pEC50 [7] | SMILES | CC50 ([1]; magi-ccr5) [µM] | CC50 [4] [µM] | CC50 [6] [µM] | CC50 [8] [µM] | CC50 ([1]; MAGI-CCR5 cells) [µM] | pKi [9] | pEC50 [10]
4.23 | 4.08 | < 4.00 | 4.56 | O=C(O)c1cccc(Cn2ccc3ccc(-c4cccc(O)c4)cc32)c1 | > 100 | > 100 | > 100 | > 100 | – | – | –
4.08 | < 4.00 | < 4.00 | 4.73 | O=C(O)c1ccc([N+](=O)[O-])c(Cc2ccc3cc[nH]c3c2)c1 | > 100 | > 100 | > 100 | > 100 | – | – | –
4.73 | 4.65 | 4.46 | 4.86 | COc1ccc(COc2cccc(-c3ccc4ccn(Cc5cccc(C(=O)OCc6cccc(C(=O)O)c6)c5)c4c3)c2)cc1 | > 100 | 58.9 | > 100 | > 100 | – | – | –
– | – | – | – | O=C(O)C(=O)c1c[nH]c2cc(Cc3cccc(C(=O)O)c3)ccc12 | – | – | – | – | > 100 | – | –
– | – | – | – | O=C(O)c1cccc(-c2ccc3cc[nH]c3c2)c1 | – | – | – | – | > 100 | – | –
4.44 | 4.32 | 4.24 | 4.74 | COc1cccc(-c2ccc3ccn(Cc4cccc(C(=O)O)c4)c3c2)c1 | – | 67.5 | > 100 | > 100 | > 500 | – | –
4.04 | < 4.00 | < 4.00 | 4.25 | COc1ccc(Cn2ccc3ccc(Cc4cccc(C(=O)O)c4)cc32)cc1 | 100 | 92.7 | > 100 | > 100 | – | – | –
– | – | – | – | O=C(O)c1cccc(Cc2ccc3ccn(Cc4cccc(C(=O)O)c4)c3c2)c1 | – | – | – | – | > 200 | – | –
– | – | – | – | O=C(O)c1cccc(Cc2ccc3c(ccn3Cc3cccc(C(=O)O)c3)c2)c1 | – | – | – | – | > 100 | 4.46 | < 4.00
4.05 | < 4.00 | < 4.00 | 4.32 | O=C(O)c1cccc(Cn2ccc3ccc(-c4ccc5cc(Cl)ccc5n4)cc32)c1 | 47 | > 100 | > 100 | > 100 | – | – | –
4.28 | 4.20 | < 4.00 | 4.37 | O=C(O)c1cccc(Cc2ccc3[nH]ccc3c2)c1 | – | > 100 | > 100 | > 100 | > 400 | – | –
– | – | – | – | O=Cc1c[nH]c2cc(Cc3cccc(C(=O)O)c3)ccc12 | – | – | – | – | > 100 | – | –
4.47 | 4.17 | 4.21 | 4.80 | COc1cccc(-n2ccc3ccc(Cc4cccc(C(=O)O)c4)cc32)c1 | – | > 100 | > 100 | > 100 | – | – | –
4.30 | 4.04 | < 4.00 | 4.84 | O=C(O)c1cccc(Cc2ccc3ccn(Cn4ccc5ccc(Cc6cccc(C(=O)O)c6)cc54)c3c2)c1 | – | > 100 | > 100 | > 100 | – | – | –
< 4.00 | < 4.00 | < 4.00 | 5.06 | COc1cc(Cc2ccc3cc[nH]c3c2)cc(C(=O)O)c1 | > 100 | > 100 | > 100 | > 100 | – | – | –
5.00 | 4.88 | 4.81 | 5.19 | O=C(O)c1cccc(Cn2ccc3cc(-c4ccc5cc(Cl)ccc5n4)ccc32)c1 | > 100 | 50.1 | > 100 | > 100 | – | – | –
4.25 | < 4.00 | < 4.00 | 4.47 | O=C(O)c1cccc(COc2cccc(-c3ccc4ccn(Cc5cccc(C(=O)O)c5)c4c3)c2)c1 | – | > 100 | > 100 | > 100 | > 500 | – | –
– | – | – | – | O=C(O)c1cccc(Cc2ccc3ccn(-c4cccc(C(=O)O)c4)c3c2)c1 | – | – | – | – | > 400 | 4.35 | –
5.70 | 5.62 | 5.55 | 6.04 | COc1ccc(Cn2ccc3ccc(-c4ccc5ccn(Cc6cccc(C(=O)O)c6)c5c4)cc32)cc1 | 19 | 50.1 | > 100 | > 100 | – | – | –
4.05 | < 4.00 | < 4.00 | 4.37 | O=C(O)c1ccc(O)c(Cc2ccc3cc[nH]c3c2)c1 | – | > 100 | > 100 | > 100 | > 500 | – | –
4.46 | 4.35 | 4.00 | 4.81 | O=C(O)c1cccc(Cc2ccc3cc[nH]c3c2)c1 | – | > 100 | > 100 | > 100 | – | – | –

SMILES | pEC50 [2] | pEC50 [3] | pEC50 [5] | pEC50 [7] | CC50 ([1]; magi-ccr5) [µM] | CC50 [4] [µM] | CC50 [6] [µM] | CC50 [8] [µM] | CC50 ([1]; MAGI-CCR5 cells) [µM] | pKi [9] | pEC50 [10]
O=C(O)c1cccc(Cn2ccc3ccc(-c4ccc5ccn(Cc6ccc(F)cc6)c5c4)cc32)c1 | 5.48 | 5.35 | 5.28 | 5.81 | 17 | 52.2 | 98.5 | > 100 | – | 5.96 | 6.27
O=C(O)c1cc(O)cc(Cc2ccc3cc[nH]c3c2)c1 | < 4.00 | < 4.00 | < 4.00 | < 4.00 | – | > 100 | > 100 | > 100 | > 500 | – | –
COc1ccc(C(=O)O)cc1Cc1ccc2cc[nH]c2c1 | < 4.00 | < 4.00 | < 4.00 | < 4.00 | > 100 | > 100 | > 100 | > 100 | – | – | –
